# Measurements published in US9289430B2, “Compounds and methods for inhibiting phosphate transport” (Ardelyx, Inc., priority 2010, dated 2016).
# How the values were obtained:
# human NaP2b (SLC34A2) = molecular target: T1, human NaP2b (SLC34A2) (Homo sapiens, UniProt O95436); assay: NaP2b-mediated Pi transport: 33P phosphate uptake into transfected HEK293 cells; format: cell-based; settings: human protein with threonine inserted after residue 37 and N39D, 100 uM KH2PO4, read-out: pIC50 range for human Nap2b (converted)
# T1 construct: host or cells: HEK293
# T1 sequence (O95436 1-690): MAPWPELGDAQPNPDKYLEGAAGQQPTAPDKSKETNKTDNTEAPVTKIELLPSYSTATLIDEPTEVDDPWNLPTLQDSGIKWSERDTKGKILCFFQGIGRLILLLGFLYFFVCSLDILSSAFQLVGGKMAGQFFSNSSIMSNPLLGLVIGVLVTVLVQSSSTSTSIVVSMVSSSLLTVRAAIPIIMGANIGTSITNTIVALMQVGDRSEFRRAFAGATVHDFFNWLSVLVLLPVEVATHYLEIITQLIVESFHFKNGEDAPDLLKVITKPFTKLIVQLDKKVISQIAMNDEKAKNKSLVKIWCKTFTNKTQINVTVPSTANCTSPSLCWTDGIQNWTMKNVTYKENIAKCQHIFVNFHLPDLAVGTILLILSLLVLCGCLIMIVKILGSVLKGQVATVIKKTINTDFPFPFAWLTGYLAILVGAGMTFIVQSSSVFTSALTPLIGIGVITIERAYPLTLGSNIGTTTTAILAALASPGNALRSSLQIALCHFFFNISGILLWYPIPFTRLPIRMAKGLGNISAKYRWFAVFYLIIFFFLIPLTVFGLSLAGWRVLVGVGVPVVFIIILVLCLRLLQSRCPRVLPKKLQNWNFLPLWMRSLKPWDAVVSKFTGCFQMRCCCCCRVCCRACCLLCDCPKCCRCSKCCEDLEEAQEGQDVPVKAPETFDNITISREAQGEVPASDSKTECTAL
# Method in brief: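 Transiently transfected HEK293 cells, human clone carrying Thr insertion after residue 37 and N39D; PiT transport silenced pharmacologically. ^33P-phosphate uptake in sodium buffer (100 uM KH2PO4, pH 7.4) versus choline buffer, 3-30 min at room temperature, twelve concentrations 0.1 nM–30 uM in duplicate; scintillation counting, pIC50 derived.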
# rat NaP2b (SLC34A2) = molecular target: T2, rat NaP2b (SLC34A2) (Rattus norvegicus, UniProt Q9JJ09); assay: as above; format: cell-based; settings: 100 uM KH2PO4, PiT-silencing agent, read-out: pIC50 range for rat Nap2b (converted)
# T2 construct: host or cells: HEK293
# T2 sequence (Q9JJ09 1-695): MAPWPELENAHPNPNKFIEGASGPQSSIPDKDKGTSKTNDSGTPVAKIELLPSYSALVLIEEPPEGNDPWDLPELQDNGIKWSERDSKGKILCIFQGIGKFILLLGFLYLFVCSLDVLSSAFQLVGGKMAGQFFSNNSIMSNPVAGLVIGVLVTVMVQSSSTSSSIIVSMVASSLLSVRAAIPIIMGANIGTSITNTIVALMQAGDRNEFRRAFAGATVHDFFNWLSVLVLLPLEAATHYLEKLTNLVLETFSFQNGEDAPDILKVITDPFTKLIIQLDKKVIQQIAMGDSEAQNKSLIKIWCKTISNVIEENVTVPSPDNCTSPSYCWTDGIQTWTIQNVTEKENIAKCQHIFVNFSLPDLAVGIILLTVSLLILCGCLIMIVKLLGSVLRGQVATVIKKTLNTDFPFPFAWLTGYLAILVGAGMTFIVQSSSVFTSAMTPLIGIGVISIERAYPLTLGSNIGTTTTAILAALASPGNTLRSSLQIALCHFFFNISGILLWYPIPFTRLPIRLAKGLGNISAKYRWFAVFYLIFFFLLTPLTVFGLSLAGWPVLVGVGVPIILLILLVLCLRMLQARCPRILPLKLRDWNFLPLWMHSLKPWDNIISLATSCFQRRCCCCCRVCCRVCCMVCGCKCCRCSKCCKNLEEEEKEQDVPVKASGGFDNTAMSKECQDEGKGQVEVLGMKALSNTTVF
# [1] = Fecal recovery of orally administered compounds; format: in vivo, Sprague-Dawley rats; settings: rats, oral gavage, nominal 10 mg/kg (actual 7.6-11 mg/kg), feces 0-48 hr after dosing
# Description: Quantitative determination of test compound level in feces after oral gavage was performed using the same set of animals used to determine test compound concentration in plasma (Example 30). The animals were kept in metabolic cages and feces were collected from the time of dosing until 48 hr after dosing. Upon collection, feces was dried by lyophilization and ground to a visually homogenous powder. Duplicate samples of ground feces from each individual animal were weighed out and extracted using organic solvent. Extracted samples were then diluted into mobile phase and test compound levels were quantitatively determined by LC-MS/MS analysis as described in “Example 30” except that the standard curve was prepared in a feces matrix. Extraction conditions were not optimized for individual compounds, and thus may represent a minimal level of recovery.
# [2] = Stability in simulated gastric and intestinal fluid; format: in vitro ADME; settings: 6 hr, 1-20 μM; for % remaining, SGF: simulated gastric fluid with 3 mg/mL pepsin; for % remaining, SIF: simulated intestinal fluid with 3 mg/mL pancreatin
# Description: Test compounds were incubated at 1-20 μM in simulated gastric fluid (SGF; standard USP solution with 3 mg/mL pepsin) or simulated intestinal fluid (SIF; standard USP solution with 3 mg/mL pancreatin) for 3 hr or 6 hr. HPLC-UV or HPLC-MS were used to determine test compound levels using peak area %. Results (Table 5) were reported as the percentage of test compound remaining after incubation in a given condition relative to test compound present at t=0 in the same condition.
SMILES,IC50 (human NaP2b (SLC34A2)),IC50 (rat NaP2b (SLC34A2)),% recovered in feces [1],"% remaining, SGF [2]","% remaining, SIF [2]"
"CN(CCN1CCOCC1)C(=O)c1cccc(C(=O)Nc2ccc(N3CCCCC3)cc2C(=O)Nc2ccn(-c3cccc(C(F)(F)F)c3)n2)c1 [Example 11, N1-Methyl-N1-(2-morpholinoethyl)-N3-(4-(piperidin-1-yl)-2-((1-(3-(trifluoromethyl)phenyl)-1H-pyrazol-3-yl)carbamoyl)phenyl)isophthalamide]",< 1 µM,< 1 µM,47%,,
"CN(CCN1CCOCC1)C(=O)c1cccc(C(=O)Nc2ccc(Cl)cc2C(=O)Nc2ccn(-c3cccc(C(F)(F)F)c3)n2)c1 [Example 14, N1-(4-Chloro-2-((1-(3-(trifluoromethyl)phenyl)-1H-pyrazol-3-yl)carbamoyl)phenyl)-N3-methyl-N3-(2-morpholinoethyl)isophthalamide 2,2,2-trifluoroacetate]",< 1 µM,< 1 µM,6.6%,93%,72%
"O=C(O)CCOCCOCCOCCNC(=O)Cc1cccc(SCc2cccc(C(=O)Nc3ccc(N4CCCCC4)cc3C(=O)Nc3ccn(-c4cccc(C(F)(F)F)c4)n3)c2)c1 [Example 26, 2-Oxo-1-(3-((3-((4-(piperidin-1-yl)-2-((1-(3-(trifluoromethyl)phenyl)-1H-pyrazol-3-yl)carbamoyl)phenyl)carbamoyl)benzyl)thio)phenyl)-6,9,12-trioxa-3-azapentadecan-15-oic acid]",< 1 µM,< 1 µM,9.5%,91%,95%
